We go through eleven compounds from ChEMBL document CHEMBL1201862, “PubChem BioAssay data set” (2004).

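All cell lines were grown in 96-well plates and treated with compound for 48 hours. GI50 = concentration required for 50% inhibition of growth.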 Active and inactive are the calls of the source. Rule as the data show it: active = GI50 up to about 1.1 µM and inactive = higher.

What all share (assay): inhibition of tumour cell growth, NCI panel, 48 h
Test [1] concerns SNB-19.
Test [2] has as its system BT-549.
Test [3] concerns A549.
The subject of test [4] is SK-MEL-2.
In test [5] the test system is HT-29.
The test system of test [6] is HCC 2998.
The test system of test [7] is NCI-H522.
The subject of test [8] is UO-31.
In test [9] the test system is NCI-H460.
For test [10], the system named is SN12C.
In test [11] the test system is SF-295.
Test [12] has as its system Malme-3M.
Test [13] has as its system ACHN.
The subject of test [14] is UACC-62.
Test [15] concerns HCT-116.
The subject of test [16] is OVCAR-4.
Test [17] deals with MDA-MB-435.
In test [18] the test system is M14.

With `Cn1c(=O)c2[nH]c(CCC(=O)O)nc2n(C)c1=O`, the GI50 in test [1], in test [2], in test [3], in test [4], in test [5] and in test [6] was > 100 µM (inactive) throughout. For the same compound, the GI50 in test [7], in [8], in [9], in test [10], in test [11] and in test [12] was > 100 µM (inactive) each time. Further, the GI50 in [13], in test [14], in [15], in test [16], in [17] and in [18] was > 100 µM (inactive) in each case.
As for `Cc1cn2c(/C=N/NC(=N)N)c(-c3cccc([N+](=O)[O-])c3)nc2s1`, the GI50 in test [2] was 1.75 µM (inactive); in test [3], 1.95 µM (inactive); in test [4], 1.96 µM (inactive); in test [5] it was 0.514 µM (active); in test [6] it was 0.839 µM (active); in [7], 2.08 µM (inactive). Besides, the GI50 in test [8] was 5.62 µM (inactive); in test [9] it was 2.01 µM (inactive); in test [10], 1.71 µM (inactive); in test [11], 1.81 µM (inactive); in test [12] it was 1.96 µM (inactive); in [13], 1.67 µM (inactive). Besides, the GI50 in test [14] was 1.69 µM (inactive); in test [15] it was 0.366 µM (active); in test [16], 0.153 µM (active); in [17], 1.82 µM (inactive); in test [18], 1.85 µM (inactive).
Take `O=[N+]([O-])c1ccc(SN=S=NSc2cccc(SN=S=NSc3ccc([N+](=O)[O-])cc3)c2)cc1`: the GI50 in test [1] was 38.5 µM (inactive); in test [2], 19.3 µM (inactive); in test [3], 46.5 µM (inactive); in test [4] it was 17.1 µM (inactive); in test [5] it was 33.2 µM (inactive); in test [6], > 100 µM (inactive). The GI50 in test [7] was 15.8 µM (inactive); in test [8], 23.8 µM (inactive); in test [9], 31 µM (inactive); in test [10], 12.4 µM (inactive); in [11], 44.3 µM (inactive); in [12], 28.1 µM (inactive). Also, the GI50 was 42.3 µM (inactive) in test [13]; 37.8 µM (inactive) in test [14]; 29.7 µM (inactive) in test [15]; 36.7 µM (inactive) in test [16]; 25.2 µM (inactive) in [17]; 37 µM (inactive) in test [18].
As for `Cc1ccc(-c2n[nH]c(=O)[nH]2)cc1`, the GI50 in test [1], in test [2], in test [3], in test [4], in test [5] and in test [6] was > 100 µM (inactive) in each case. Besides, the GI50 in [7] is > 100 µM (inactive); in test [8] it was > 100 µM (inactive); in test [9], > 100 µM (inactive); in test [10], > 100 µM (inactive); in test [11], > 49 µM (inactive); in test [12], > 100 µM (inactive). The GI50 in [13], in test [14], in test [15], in [16], in test [17] and in test [18] was > 100 µM (inactive) throughout.
On to `O=C(O)C(=Cc1ccc(-c2ccc([N+](=O)[O-])cc2)o1)C(=O)O`, for which the GI50 in test [1], in test [2], in test [3], in test [4], in [5] and in test [6] was > 100 µM (inactive) in each case. The GI50 in test [7], in test [8], in [9], in test [10], in test [11] and in test [12] was > 100 µM (inactive) in each case. The GI50 in [13], in test [14], in [15], in [17] and in [18] was > 100 µM (inactive) in each case.
Regarding `C[C@H]1CC[C@@H]2[C@@H](C)[C@H]3[C@H](C[C@H]4[C@@H]5CC=C6C[C@@H](O)CC[C@]6(C)[C@H]5C[C@H](O)[C@]34C)N2C1`, the GI50 in [1], in test [2], in test [3], in test [4], in test [5] and in [6] was > 100 µM (inactive) throughout. Also, the GI50 in test [7], in [8], in test [9], in test [10], in [11] and in [12] was > 100 µM (inactive) throughout. In addition, the GI50 in test [13], in test [14], in test [15], in test [16], in test [17] and in test [18] was > 100 µM (inactive) each time.
As to `C[C@H]1CCC/C=C/[C@@H]2C[C@H](OC(=O)CN(C)C)C[C@H]2[C@H](O)/C=C/C(=O)O1`, the GI50 is 0.319 µM (active) in test [1]; 0.232 µM (active) in test [2]; 0.286 µM (active) in test [3]; 0.153 µM (active) in [4]; 0.105 µM (active) in test [5]; 0.0612 µM (active) in test [6]. The GI50 in test [7] was 0.425 µM (active); in [8], 0.0581 µM (active); in test [9], 0.365 µM (active); in [10], 0.158 µM (active); in test [11], 0.165 µM (active); in [12], 0.0738 µM (active). Further, the GI50 in test [13] was 0.2 µM (active); in test [14] it was 0.108 µM (active); in test [15], 0.242 µM (active); in [16], 0.154 µM (active); in test [17] it was 0.157 µM (active); in [18], 0.0778 µM (active).
As to `CCOC(=O)c1ccc(/N=C2/C(=S)N(c3ccc(C(=O)OCC)cc3)C(=N)N2/N=C/c2ccccc2)cc1`, the GI50 is 14.3 µM (inactive) in test [1]; 17.5 µM (inactive) in test [2]; 30 µM (inactive) in [3]; 26.1 µM (inactive) in test [4]; 18.4 µM (inactive) in [5]; 21.8 µM (inactive) in test [6]. In addition, the GI50 in test [7] is 2.34 µM (inactive); in [8], 13.2 µM (inactive); in [9], 15.5 µM (inactive); in test [10], 17.9 µM (inactive); in test [11], 26.7 µM (inactive); in [12], 17.6 µM (inactive). Besides, the GI50 was 5.7 µM (inactive) in test [14], 6.11 µM (inactive) in [15], > 10 µM (inactive) in [17] and 11.8 µM (inactive) in [18].
In the case of `O=C(NCCCl)N(O)C(=O)Nc1ccccc1`, the GI50 in [1], in test [2], in [3], in [4], in test [5] and in test [6] was > 100 µM (inactive) each time. The GI50 in test [7], in test [8], in test [9], in [10], in [11] and in test [12] was > 100 µM (inactive) in each case. The GI50 in test [13], in test [14], in test [15], in [16], in test [17] and in test [18] was > 100 µM (inactive) in each case.
For the compound `C/C(=N/NC(=S)N(Cc1ccccn1)Cc1ccccn1)c1cnccn1`, the GI50 in test [1] was 0.962 µM (active); in [2] it was 0.646 µM (active); in [3], 0.329 µM (active); in test [4], 3.41 µM (inactive); in test [5] it was 0.0303 µM (active); in test [6], 2.69 µM (inactive). Moreover, the GI50 in test [7] was 0.0381 µM (active); in test [9], 0.601 µM (active); in test [10], 0.208 µM (active); in [11], 0.374 µM (active); in [12], 0.0472 µM (active); in [13] it was 0.306 µM (active). The GI50 was 0.537 µM (active) in test [14]; 0.33 µM (active) in test [15]; 0.288 µM (active) in [16]; 0.897 µM (active) in test [17]; 0.0622 µM (active) in test [18].
On to `O=C1CN(c2ccc(Cl)cc2)C(=O)CN1CCN1CC(=O)N(c2ccc(Cl)cc2)CC1=O`, for which the GI50 in [1], in [2], in test [3], in [5], in test [6] and in [7] was > 100 µM (inactive) each time. For the same compound, the GI50 in [8], in test [9], in test [10], in [11], in [12] and in test [13] was > 100 µM (inactive) throughout. Moreover, the GI50 in test [14], in test [15], in test [16], in test [17] and in test [18] was > 100 µM (inactive) each time.
